Data published in patent US8986722B2, “Pest control composition” (priority 2010, dated 2015).

What was measured:
[1] = HLB of polyglycerol fatty acid ester, Griffin formula 20(1−S/A); assay type: physicochemical; details: from saponification and acid values
Text: The HLB (Hydrophile-Lipophile Balance) is an index indicating degrees of hydrophilic properties and lipophilic properties of a surfactant and being shown by a numerical value of 0 to 20. […] Therefore, a surfactant having a low HLB is apt to adapt to a hydrophobic system and a surfactant having a high HLB is apt to adapt to a hydrophilic system.
As the HLB value of said polyglycerol fatty acid ester, a numerical value derived from the following calculation method which is an empirical formula by Griffin is applied. In this regard, as the below-described saponification and acid values, values analyzed in accordance with general test procedures of standards for food additives and standards of quasi-drug ingredients are used. HLB value=20(1−S/A)
S: Saponification value for an ester of a surfactant.
A: Acid value of a fatty acid constituting a surfactant.

[2] = Surface tension by Wilhelmy method (plate method); assay type: physicochemical; details: 20° C., 0.1% by mass aqueous solution
Procedure: For surface tension in the present description, a numerical value measured by Wilhelmy method (plate method) is used. The principle of measurement is as described below. When a platinum plate is contacted with the surface of a liquid, the liquid rises along the plate. Then, surface tension acts along the periphery of the plate and a force drawing the plate into the liquid is generated. Thus in the method, this drawing force is measured and the surface tension is measured. Specifically, a 0.1% by mass aqueous solution of a sample nonionic surfactant is made as a measurement sample, which is measured by an automatic surface tension measuring machine (for example, DY-300 automatic surface tension meter, manufactured by Kyowa Interface Science Corp., Ltd.) by Wilhelmy method shown above at a temperature of 20° C. to determine the surface tension. […] The nonionic surfactant has a property to decrease the surface tension of an aqueous solution. For this reason, when an aqueous solution containing this adheres to the surface of another substance, “wettability” at said surface is improved. As a result, a diluent of the present invention composition containing said nonionic surfactant easily adheres to the surface of target pests and the surface of spray-target agricultural crops.

Row | Compound | HLB [1] | also measured
1 | decaglycerol erucate [SY Glyster NE-750] | 3.2 | –
2 | decaglycerol erucate [SY Glyster OE-750] | 3.7 | –
3 | CCCCCCCCOC(=O)CC(C(=O)OCCCCCCCC)S(=O)(=O)O (stereo not drawn) [Newkalgen EP-70G, dioctyl sulfosuccinate] | – | surface tension [2]: 28 mN/m
4 | decaglycerol monocaprate [SY Glyster MCA-750] | 16 | HLB ([1]; listed as decaglycerol monocapric acid ester): about 16
5 | diglycerol monooleate [S-FACE O-201P] | 8 | HLB ([1]; listed as diglycerol monooleic acid ester): about 8
6 | decaglycerol decaoleate [SY Glyster DAO-7S] | 3.2 | HLB ([1]; listed as decaglycerol decaoleic acid ester): about 4
7 | tetraglycerol trioleic acid ester | about 5 | –
8 | hexaglycerol monooleate [SY Glyster MO-5S] | 11.6 | HLB ([1]; listed as hexaglycerol monooleic acid ester): about 11
9 | tetraglycerol monolaurate [SY Glyster ML-310] | 10.3 | HLB ([1]; listed as tetraglycerol monolauric acid ester): about 10
10 | hexaglycerol pentaoleate [SY Glyster PO-5S] | 4.9 | HLB ([1]; listed as hexaglycerol pentaoleic acid ester): about 5
11 | tetraglycerol hexaoleic acid ester | about 2 | –

The next lines start with results.

Row | HLB [1] | Compound | also measured
12 | about 5 | decaglycerol heptaoleic acid ester | –
13 | about 4 | decaglycerol nonaoleic acid ester | –
14 | about 3 | decaglycerol undecaoleic acid ester | –
15 | about 4 | hexaglycerol octaoleic acid ester | –
16 | about 3 | diglycerol trioleic acid ester | –
17 | about 4 | diglycerol dioleic acid ester | –
18 | about 2 | tetraglycerol pentaoleic acid ester | –
19 | about 3 | decaglycerol dodecaoleic acid ester | –
20 | 3 | hexaglycerol condensed ricinoleate [SY Glyster CR-500] | HLB ([1]; listed as hexaglycerol-condensed ricinoleic acid ester): about 3
21 | about 2 | diglycerol tetraoleic acid ester | –
22 | about 5 | decaglycerol octaoleic acid ester | –
23 | 3 | polyglycerol condensed ricinoleate [SY Glyster CRS-75] | –
24 | about 4 | tetraglycerol tetraoleic acid ester | –
25 | about 4 | hexaglycerol hexaoleic acid ester | –
26 | about 4 | hexaglycerol heptaoleic acid ester | –
